Where “and” joins values, the source holds several entries; their conditions need not be identical. Equal values may be shown once.
Tests used:
Format in all cases: cell-based
[1] = molecular target: T1, full-length Nurr1 monomer (NBRE) (Homo sapiens, UniProt P43354); assay: Full-length Nurr1 reporter gene assay, monomer response element NBRE
T1 construct: full-length human nuclear receptor Nurr1 encoded by pcDNA3.1 -hNurr1-NE; host or cells: HEK293T
Method: Based on these findings, we next determined the effects of 2 and 3 on Nurr1 activity in a cellular setting using reporter constructs for the NGFI-B response element (NBRE), the Nur response element (NurRE), and the direct repeat 5 (DR5)[36]. All three response elements are robustly activated by common Nurr1 agonists[4],[31]. […]
modified Eagle’s medium (DMEM), high glucose supplemented with 10% fetal calf serum (FCS), sodium pyruvate (1 mM), penicillin (100 U/mL), and streptomycin (100 μg/mL) at 37 °C and 5% CO2 and seeded in 96-well plates (3×10^4 cells/well). […] Five hours after transfection, the cells were incubated with the test compounds in Opti-MEM supplemented with penicillin (100 U/mL), streptomycin (100 μg/mL), and 0.1% DMSO for 15 h before luciferase activity was measured using the Dual -Glo Luciferase Assay System (Promega) according to the manufacturer’s protocol on a Tecan Spark l uminometer (Tecan Deutschland GmbH, Germany). Firefly luminescence was divided by Renilla luminescence and multiplied by 1000, resulting in relative light units (RLU) to normalize for transfection efficiency and cell growth. […]
Reporter gene assays for full-length human Nurr1 and RXR. […] Firefly luminescence was divided by Renilla luminescence and multiplied by 1000, resulting in relative light units (RLU) to normalize for transfection efficiency and cell growth. […]

Nurr1 = molecular target: T2, Nurr1 (Homo sapiens, UniProt P43354); assay: Gal4-hybrid reporter gene assay, Nurr1; details: Gal4-hybrid reporter gene assay; for max. act. (Nurr1): max. fold activation; for EC50: mean±S.E.M., n≥3
T2 construct: pFA-CMV-hNurr1-LBD; expressed in transfected cells; host or cells: HEK293T
Method: (§1) modified Eagle’s medium (DMEM), high glucose supplemented with 10% fetal calf serum (FCS), sodium pyruvate (1 mM), penicillin (100 U/mL), and streptomycin (100 μg/mL) at 37 °C and 5% CO2 and seeded in 96-well plates (3×10^4 cells/well). After 24 h, the medium was changed to Opti-MEM without supplements, and the cells were transiently transfected using Lipofectamine LTX reagent (Invitrogen) according to the manufacturer’s protocol. Five hours after transfection, the cells were incubated with the test compounds in Opti-MEM supplemented with penicillin (100 U/mL), streptomycin (100 μg/mL), and 0.1% DMSO for 15 h before luciferase activity was measured using the Dual -Glo Luciferase Assay System (Promega) according to the manufacturer’s protocol on a Tecan Spark l uminometer (Tecan Deutschland GmbH, Germany). Firefly luminescence was divided by Renilla luminescence and multiplied by 1000, resulting in relative light units (RLU) to normalize for transfection efficiency and cell growth. Fold activation was obtained by dividing the mean RLU of a sample by the mean RLU of the untreated control. All samples were tested in at least three biologically independent experiments in duplicates. For dose –response curve fitting and calculation of EC50 values, the equation “[Agonist] vs. response – Variable slope (four parameters)” was used in GraphPad Prism (version 5.04, GraphPad Software, La Jolla, CA, USA). […] (10 μM, NR4A) and bexarotene (1 µM, NR2B) served as the positive control. […]
(§2) 150 μM in the same buffer containing 2-4% DMSO) in 21–26 injections (1 × 1 μL and 20 × 4 to 25 × 4 μL) with an injection interval of 120 s. As control experiments, the test compounds were titrated to the buffer, and the buffer was titrated to the protein under otherwise identical conditions. The heat rates of the compound-Nurr1 LBD titrations were analyzed using NanoAnalyze software (TA Instruments, New Castle, DE) with an independent binding model.

RXRα = molecular target: T3, RXRα (Homo sapiens, UniProt P19793); assay: Gal4-hybrid reporter gene assay, RXRα; details: Gal4-hybrid reporter gene assay; for EC50: mean±S.E.M., n≥3
T3 construct: pFA-CMV-hRXRα-LBD; expressed in transfected cells; host or cells: HEK293T
T3 sequence (P19793 227-458 limits assumed): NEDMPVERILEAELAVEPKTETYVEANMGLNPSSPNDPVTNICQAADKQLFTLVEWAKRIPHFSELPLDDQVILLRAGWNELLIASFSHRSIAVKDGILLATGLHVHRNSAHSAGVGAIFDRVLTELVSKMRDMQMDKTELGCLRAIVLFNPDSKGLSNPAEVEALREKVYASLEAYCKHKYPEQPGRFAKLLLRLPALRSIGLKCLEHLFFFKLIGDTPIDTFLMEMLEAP
Method: as §1, §2

T2 sequence (P43354 360-595 limits assumed): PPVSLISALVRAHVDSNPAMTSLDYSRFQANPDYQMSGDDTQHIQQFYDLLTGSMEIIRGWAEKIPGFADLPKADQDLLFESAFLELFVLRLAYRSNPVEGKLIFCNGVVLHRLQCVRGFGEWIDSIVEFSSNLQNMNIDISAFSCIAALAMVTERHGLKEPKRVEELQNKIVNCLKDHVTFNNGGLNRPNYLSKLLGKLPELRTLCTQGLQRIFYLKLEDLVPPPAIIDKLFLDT
T1 sequence (P43354 whole entry): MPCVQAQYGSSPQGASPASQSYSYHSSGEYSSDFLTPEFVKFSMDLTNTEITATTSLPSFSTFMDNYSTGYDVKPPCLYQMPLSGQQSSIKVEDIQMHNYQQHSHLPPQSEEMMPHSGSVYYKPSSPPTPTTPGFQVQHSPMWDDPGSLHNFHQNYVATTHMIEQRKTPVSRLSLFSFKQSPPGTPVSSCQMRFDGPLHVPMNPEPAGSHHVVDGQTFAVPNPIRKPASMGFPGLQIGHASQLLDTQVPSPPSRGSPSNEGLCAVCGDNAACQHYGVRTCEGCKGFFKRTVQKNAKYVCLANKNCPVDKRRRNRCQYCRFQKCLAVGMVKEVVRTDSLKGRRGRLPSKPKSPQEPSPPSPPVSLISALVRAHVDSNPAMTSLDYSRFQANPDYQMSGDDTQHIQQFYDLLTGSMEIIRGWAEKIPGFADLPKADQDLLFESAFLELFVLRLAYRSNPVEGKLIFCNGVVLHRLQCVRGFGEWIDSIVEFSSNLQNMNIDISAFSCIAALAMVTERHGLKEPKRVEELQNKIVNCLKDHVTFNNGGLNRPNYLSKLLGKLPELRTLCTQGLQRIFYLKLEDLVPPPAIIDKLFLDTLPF

SMILES: Cc1c(C)n(-c2ccc(CC(=O)O)cc2)c2ccc(F)cc12 [compound 3]
- activation on NBRE [1]: no activation was detectable
- max. act. (Nurr1) (Nurr1): 4.3±0.5 fold
- EC50 (Nurr1): 2200 ± 900 nM
- max. act. (RXR) α (RXRα): 83±9 fold
- EC50 (RXRα): 400 nM

SMILES: Cc1c2c(n(-c3ccc(CC(=O)O)cc3)c1C)CCC(F)(F)C2 [compound 2]
- activation on NBRE [1]: no activation was detectable
- max. act. (Nurr1) (Nurr1): 3.3 fold and 3.3±0.1 fold
- EC50 (Nurr1): 2600 ± 400 nM
- max. act. (RXR) α (RXRα): 69±1 fold
- EC50 (RXRα): 970 nM

— article PMC7618597, “Dual Nurr1/RXR agonism of valerenic acid and synthetic mimetics enables dimer-selective Nurr1 modulation” (ACS medicinal chemistry letters, 2025)
